{"source": "patent US20170106101A1", "about": "“METHODS INVOLVING MACROPHAGE TUMOR CELL FUSION HYBRIDS” (OREGON HEALTH & SCIENCE UNIVERSITY, priority 2015, published 2017)", "molecules": {"B1": {"name": "Csf1: ligand of colony stimulating factor 1 receptor, used as chemoattractant (protein, UniProt P07141 33-552, looked up)", "Macrophage colony-stimulating …": "KEVSEHCSHMIGNGHLKVLQQLIDSQMETSCQIAFEFVDQEQLDDPVCYLKKAFFLVQDIIDETMRFKDNTPNANATERLQELSNNLNSCFTKDYEEQNKACVRTFHETPLQLLEKIKNFFNETKNLLEKDWNIFTKNCNNSFAKCSSRDVVTKPDCNCLYPKATPSSDPASASPHQPPAPSMAPLAGLAWDDSQRTEGSSLLPSELPLRIEDPGSAKQRPPRSTCQTLESTEQPNHGDRLTEDSQPHPSAGGPVPGVEDILESSLGTNWVLEEASGEASEGFLTQEAKFSPSTPVGGSIQAETDRPRALSASPFPKSTEDQKPVDITDRPLTEVNPMRPIGQTQNNTPEKTDGTSTLREDHQEPGSPHIATPNPQRVSNSATPVAQLLLPKSHSWGIVLPLGELEGKRSTRDRRSPAELEGGSASEGAARPVARFNSIPLTDTGHVEQHEGSSDPQIPESVFHLLVPGIILVLLTVGGLLFYKWKWRSHRDPQTLDSSVGRPEDSSLTQDEDRQVELPV"}, "B2": {"name": "Hgf: Hepatic growth factor, cytokine tested for growth effect on MC38 and hybrid cells (protein, UniProt Q08048 33-495; Q08048 496-728, looked up)", "Hepatocyte growth factor …": "QKKRRNTLHEFKKSAKTTLTKEDPLLKIKTKKVNSADECANRCIRNRGFTFTCKAFVFDKSRKRCYWYPFNSMSSGVKKGFGHEFDLYENKDYIRNCIIGKGGSYKGTVSITKSGIKCQPWNSMIPHEHSFLPSSYRGKDLQENYCRNPRGEEGGPWCFTSNPEVRYEVCDIPQCSEVECMTCNGESYRGPMDHTESGKTCQRWDQQTPHRHKFLPERYPDKGFDDNYCRNPDGKPRPWCYTLDPDTPWEYCAIKTCAHSAVNETDVPMETTECIQGQGEGYRGTSNTIWNGIPCQRWDSQYPHKHDITPENFKCKDLRENYCRNPDGAESPWCFTTDPNIRVGYCSQIPKCDVSSGQDCYRGNGKNYMGNLSKTRSGLTCSMWDKNMEDLHRHIFWEPDASKLNKNYCRNPDDDAHGPWCYTGNPLIPWDYCPISRCEGDTTPTIVNLDHPVISCAKTKQLR", "Hepatocyte growth factor beta …": "VVNGIPTQTTVGWMVSLKYRNKHICGGSLIKESWVLTARQCFPARNKDLKDYEAWLGIHDVHERGEEKRKQILNISQLVYGPEGSDLVLLKLARPAILDNFVSTIDLPSYGCTIPEKTTCSIYGWGYTGLINADGLLRVAHLYIMGNEKCSQHHQGKVTLNESELCAGAEKIGSGPCEGDYGGPLICEQHKMRMVLGVIVPGRGCAIPNRPGIFVRVAYYAKWIHKVILTYKL"}}, "assay_type_in_all_cases": "cell-based, mouse", "key": {"[1]": {"system": "MC38-derived fusion hybrids", "assay": "Transwell chemotaxis assay towards ligand", "settings": "ligand 25 ng/ml", "procedure": "(§1) Chemotaxis assay. Chemotaxis assays were performed using IncuCyte™ Chemotaxis Cell Migration Assay (Essen) with at least three technical replicates of triplicate samples. Briefly, 1000 cancer cells were plated in the top wells in DMEM+0.2% FBS after incubation in serum-free media for 20 h. Csf1 or Sdf1 ligand (25 ng/mL) was added to the bottom well and cells were incubated at 37° C. for at least 36 hours with live-imaging. The neutralizing antibodies to the Csf1R (eBioscience), Cxcr4 (Biolegend) and isotype control antibody were added to the top and bottom well (2.5 ng/μL). Migration was quantified by measuring phase contrast area of the top and bottom wells for each timepoint using IncuCyte ZOOM® software. Triplicates of each condition were performed, and the means and standard deviations were calculated. p<0.02 for hybrids treated with Csf1 or Sdf1 relative to hybrids without Csf1 or Sdf1 by unpaired t-test. Two independent hybrid isolates were analyzed. Technical octupulicates (MC38) or sextuplicates (B16F10) with biologic quadruplicates or triplicates were analyzed. For inhibitor studies technical duplicates with biologic triplicates were analyzed."}, "[2]": {"system": "unfused MC38 cancer cells", "assay": "Transwell chemotaxis assay towards ligand", "settings": "ligand 25 ng/ml", "procedure": "as §1"}, "[3]": {"system": "MC38-derived hybrid cells", "assay": "Growth responsiveness to cytokines and soluble factors (MTS, confluence, viability)", "settings": "increasing concentrations of cytokine; MC38-derived hybrids", "procedure": "(§2) In vitro-derived hybrid proliferation. For phenotypic profiling growth responsiveness to cytokines and soluble factors, 95 different cytokines or soluble signaling molecules were distributed at high, medium and low concentrations in 384 well plates, in 25 μl of RPMI (Life Technologies, NY) supplemented with 1% FBS; and 25 μl of a 1.2×10^4 cells/ml suspension of hybrid or MC-38 cells in DMEM+4% FBS was added to each well. 99 wells of each plate were left cytokine-free and no cells were added to two of these wells, which served to provide measurements of background signal. Plates were cultured in a humidified incubator for 72 hours, after which 5 ul of MTS reagent was added to each well. Two hours later, absorbance at 490 nm was read with a 384-well plate reader. For each plate, absorbance values for each cytokine-treated well were normalized to the mean absorbance of the cytokine-free wells on that plate, and expressed in terms of standard deviations from the cytokine-free mean. Three independent hybrid isolates and three MC38 replicates were analyzed. […] In these experiments, 2.5×10^4 hybrid or MC38 cells were plated in the presence of three different concentrations for each soluble factor, or in media alone (DMEM+2.5% FBS), in triplicate for each condition. Plates were imaged every two hours for 90 hours, and then cell viability was assessed."}, "MC38 cells": {"system": "MC38 cells", "assay": "Growth responsiveness to cytokines and soluble factors (MTS, confluence, viability)", "settings": "increasing concentrations of cytokine", "procedure": "as §2"}, "[4]": {"system": "B16F10 cancer cell hybrids", "assay": "Transwell chemotaxis assay towards ligand", "settings": "ligand 25 ng/ml", "procedure": "as §1"}}, "data": [{"molecule": "Sdf1: strongly chemotactic lymphocyte cytokine, ligand of Cxcr4", "values": [{"measurement": "migration of fusion hybrids towards ligand", "setting": "[1]", "result": "migrated towards"}, {"measurement": "migration of unfused MC38 cells towards ligand", "setting": "[2]", "result": "incapable of responding"}]}, {"molecule": "Tnf-α", "values": [{"measurement": "effect on hybrid proliferation / growth", "setting": "[3]", "result": "resistant"}, {"measurement": "effect on MC38 proliferation / growth", "setting": "MC38 cells", "result": "profound inhibitory effect"}]}, {"molecule": "B1", "values": [{"measurement": "migration of fusion hybrids towards ligand", "setting": "[1]", "result": "migrated towards"}, {"measurement": "migration of unfused MC38 cells towards ligand", "setting": "[2]", "result": "incapable of responding"}, {"measurement": "migration of B16F10 hybrids towards ligand", "setting": "[4]", "result": "low response"}]}, {"molecule": "B2", "values": [{"measurement": "effect on MC38 proliferation / growth", "setting": "MC38 cells", "result": "moderate, dose-dependent growth-suppressing effect"}]}]}
